Reference: patent US20230416298A1, “PRODRUGS OF NEUROACTIVE STEROIDS” (Brii Biosciences, Inc., priority 2020, published 2023)

What was measured:
Plasma stability = format: in vitro ADME; details: 37° C.; for Stability in Human Plasma Formation of parent compound: 2 μM, Yes/No; for half-life at 2 μM: pooled plasma, pH 7.4, human plasma, time points 0, 10, 30, 60 and 120 min
Method: The pooled frozen plasma was thawed in a water bath at 37° C. prior to experiment. Plasma was centrifuged at 4000 rpm for 5 min and the clots were removed if any. The pH will be adjusted to 7.4±0.1 if required.
Preparation of test compounds and positive control (propantheline bromide): 1 mM intermediate solution was prepared by diluting 10 μL of the stock solution with 90 μL MeOH; 1 mM intermediate of positive control Propantheline was prepared by diluting 10 μL of the stock solution with 90 μL ultrapure water. 100 μM dosing solution was prepared by diluting 20 μL of the intermediate solution (1 mM) with 180 μL MeOH. 98 μL of blank plasma was spiked with 2 μL of dosing solution (100 μM) to achieve 2 μM of the final concentration in duplicate and samples were incubated at 37° C. in a water bath. At each time point (0,10, 30, 60 and 120 min), 400 μL of stop solution (0.1% FA in MeOH containing 200 ng/mL tolbutamide and 200 ng/mL Labetalol) was added to precipitate protein and mixed thoroughly. Centrifuged sample plates at 4,000 rpm for 10 min. An aliquot of supernatant (100 μL) was transferred from each well to another plates.
Data analysis: The % remaining of test compound after incubation in plasma was calculated using following equation:
% Remaining=[…]×(PAR at appointed incubation time/PAR at T0 time)
where PAR is the peak area ratio of analyte versus internal standard (IS) (LC/MS/MS mobile phase condition: 0.1% Formic Acid in Water/0.1% Formic Acid in Acetonitrile. The appointed incubation time points are TO (0 min), Tn (n=0, 10, 30, 60, 120 min).

Liver S9 stability = format: in vitro ADME; details: human liver S9, 37° C.; for half-life at 1 μM: time points up to 60 min; for Stability in Human Liver S9 Formation of parent compound: Yes/No
Method: Intermediate solution: Dilute 5 μL of compounds or controls (7-ethoxycoumarin) from stock solution (10 mM) with 495 μL MeOH (Conc.: 100 μM, 1% DMSO, 99% MeOH). Stop solution: Cold ACN (including 100 ng/mL Tolbutamide and Labetalol as internal standard). Add 2 μL test compound or control working solution/well to all plates (T0, T5, T10, T20, T30, T60, NCF60) except matrix blank. Add 600 μL/well stop solution (cold in 4° C., including 100 ng/mL Tolbutamide/100 ng/mL Labetalol) to terminate the TO plate, then put it on ice. Dispense 840 μL/well S9 solution to 96-well plate as reservoir according to plate map. Then add 100 μL/well to every plate by Apricot. Incubate S9 solution and compound at 37° C. for about 10 min except NCF60 and TO. After adding S9 solution and 98 μ LPB buffer to NCF60, incubate at 37° C. without pre-warming, start timer 1. After 60 min, add 600 μL/well stop solution to terminate the reaction. After pre-warming, dispense 760 μL/well cofactor solution to 96-well plate as reservoir according to plate map. Then add 98 μL/well to every plate by Apricot to start reaction. Incubate at 37° C., start timer 2, Add 600 μL/well stop solution (cold in 4° C., including 100 ng/mL Tolbutamide and Labetalol) to terminate the reaction. Samples are centrifuged at 4000 rpm for 20 min. While centrifuging, load 8×new 96-well plate with 300 μL HPLC water, then transfer 100 μL supernatant, mix with water for LC/MS/MS, transferred to Bioanalytical Services for LC-MS/MS analysis. Use equation of first order kinetics to calculate t1/2 and CL: Equation of first order kinetics: […]

For CC(=O)[C@H]1CC[C@H]2[C@@H]3CC[C@H]4C[C@H](OC(=O)OCCN(C)C(=O)C(C)C)CC[C@]4(C)[C@H]3CC[C@]12C [Example 25, (3R,5S,8R,9S,10S,13S,14S,17S)-17-acetyl-10,13-dimethylhexadecahydro-1H-cycl penta[a]phenanthren-3-yl(2-(N-methylisobutyramido)ethyl) carbonate], the “Stability in Human Plasma Formation of parent compound” value (Plasma stability) was “No”, the half-life at 2 μM (Plasma stability) was > 200 min and the half-life at 1 μM (Liver S9 stability) was < 50 min. The “Stability in Human Liver S9 Formation of parent compound” value (Liver S9 stability) was “No”.

For COC(=O)N(C)CCOC(=O)O[C@@H]1CC[C@@]2(C)[C@@H](CC[C@@H]3[C@@H]2CC[C@]2(C)[C@@H](C(C)=O)CC[C@@H]32)C1 [Example 27, [(3R,5S,8R,9S,10S,13S,14S,17S)-17-acetyl-10,13-dimethyl-2,3,4,5,6,7,8,9,11,12,14,15,16,17-tetradecahydro-1H-cyclopenta[a]phenanthren-3-yl]2-(methoxycarbonyl-N-methylamino)ethyl carbonate], the “Stability in Human Plasma Formation of parent compound” value (Plasma stability) was “No”, the half-life at 2 μM (Plasma stability) was > 200 min and the half-life at 1 μM (Liver S9 stability) was < 50 min. The “Stability in Human Liver S9 Formation of parent compound” value (Liver S9 stability) was “Yes”.
